PMC11871066, “Structure-based discovery of hydrocarbon-stapled paxillin peptides that block FAK scaffolding in cancer” (Nature Communications, 2025)
Where two headings read alike, the source gives them in different places.

Columns and labels:
Assay in all cases: Eurofins KINOMEscan profiling, 97 kinases
[1] = molecular target: 97 kinases (kinase named in endpoint) (Homo sapiens, UniProt O15530); settings: read-out: % Ctrl, PDPK1
Protocol: (§1) This experiment was performed by Eurofins KINOMEscan™ Profiling Service. […] The lysates were centrifuged and filtered, the remaining kinases were produced in HEK-293 cells and subsequently tagged with DNA for qPCR detection. […] The liganded beads were blocked with excess biotin and washed with blocking buffer (SeaBlock (Pierce), 1% BSA, 0.05% Tween-20, 1 mM DTT). […] Test compounds were prepared as 100x stocks in 100% DMSO and directly diluted into the assay. All reactions were performed in polypropylene 384-well plates in a final volume of 0.02 ml. […] The kinase concentration in the eluates was measured by qPCR.
(§2) (negative control signal - positive control signal)] x 100. ( b) AccompanyingSelectivity Scores or S -scores
(§3) which are quantitative measures of compound selectivity. They are calculated by dividing the number of
(§4) kinases that compounds bind to by the total number of distinct kinases tested, excluding mutant variants.
(§5) S(35)= ( num ber of non -mutant kinases with %Ctrl <35)/(number of non- mutant kinases tested)], S(10)=
(§6) non- mutant kinases with %Ctrl <1)/(number of non- mutant kinases tested)].

[2] = molecular target: 97 kinases (kinase named in endpoint) (Homo sapiens, UniProt Q15831); settings: read-out: % Ctrl, LKB1
Sequence of 97 kinases (kinase named in endpoint) (Homo sapiens, UniProt Q15831) (Q15831 whole entry): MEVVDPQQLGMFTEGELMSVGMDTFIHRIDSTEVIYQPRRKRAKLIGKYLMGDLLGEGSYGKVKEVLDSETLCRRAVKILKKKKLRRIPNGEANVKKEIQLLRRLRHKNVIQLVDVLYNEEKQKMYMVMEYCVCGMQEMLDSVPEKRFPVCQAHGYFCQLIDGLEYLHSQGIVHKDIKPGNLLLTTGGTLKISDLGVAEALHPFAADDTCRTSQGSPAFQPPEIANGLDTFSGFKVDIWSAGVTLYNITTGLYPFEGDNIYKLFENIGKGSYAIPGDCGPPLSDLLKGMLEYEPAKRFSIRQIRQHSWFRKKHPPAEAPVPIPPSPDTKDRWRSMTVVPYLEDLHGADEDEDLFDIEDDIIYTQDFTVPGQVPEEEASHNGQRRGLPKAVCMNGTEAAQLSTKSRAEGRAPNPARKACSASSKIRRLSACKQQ
Protocol: as §1, §2, §3, §4, §5, §6

[3] = molecular target: 97 kinases (kinase named in endpoint) (Homo sapiens, UniProt Q96GD4); settings: read-out: % Ctrl, AURKB
Protocol: as §1, §2, §3, §4, §5, §6

[4] = molecular target: 97 kinases (kinase named in endpoint) (Homo sapiens, UniProt P15056); settings: read-out: % Ctrl, BRAF
Protocol: as §1, §2, §3, §4, §5, §6

[5] = molecular target: 97 kinases (kinase named in endpoint) (Homo sapiens, UniProt P29317); settings: read-out: % Ctrl, EPHA2
Protocol: as §1, §2, §3, §4, §5, §6

[6] = molecular target: 97 kinases (kinase named in endpoint) (Homo sapiens, UniProt Q9H093); settings: read-out: % Ctrl, SNARK
Sequence of 97 kinases (kinase named in endpoint) (Homo sapiens, UniProt Q9H093) (Q9H093 whole entry): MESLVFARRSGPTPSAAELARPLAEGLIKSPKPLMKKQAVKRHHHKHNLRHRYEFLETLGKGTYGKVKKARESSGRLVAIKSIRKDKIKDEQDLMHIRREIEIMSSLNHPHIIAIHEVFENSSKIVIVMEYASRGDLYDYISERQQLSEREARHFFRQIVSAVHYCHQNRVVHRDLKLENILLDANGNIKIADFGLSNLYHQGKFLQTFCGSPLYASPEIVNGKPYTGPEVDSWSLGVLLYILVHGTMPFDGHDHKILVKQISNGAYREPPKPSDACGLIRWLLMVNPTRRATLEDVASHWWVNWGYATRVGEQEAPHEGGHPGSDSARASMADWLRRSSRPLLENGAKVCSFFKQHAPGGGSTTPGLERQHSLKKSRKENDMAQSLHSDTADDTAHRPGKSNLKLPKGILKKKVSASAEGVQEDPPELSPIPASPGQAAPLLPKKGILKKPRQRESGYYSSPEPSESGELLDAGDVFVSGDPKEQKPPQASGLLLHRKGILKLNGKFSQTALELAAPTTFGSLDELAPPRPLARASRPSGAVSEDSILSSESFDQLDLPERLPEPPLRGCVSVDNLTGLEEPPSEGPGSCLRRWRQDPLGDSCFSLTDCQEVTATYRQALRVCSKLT
Protocol: as §1, §2, §3, §4, §5, §6

[7] = molecular target: 97 kinases (kinase named in endpoint) (Homo sapiens, UniProt P24941); settings: read-out: % Ctrl, CDK2
Protocol: as §1, §2, §3, §4, §5, §6

[8] = molecular target: 97 kinases (kinase named in endpoint) (Homo sapiens, UniProt P15056, V600E); settings: read-out: % Ctrl, BRAF(V600E)
Protocol: as §1, §2, §3, §4, §5, §6

[9] = molecular target: 97 kinases (kinase named in endpoint) (Homo sapiens, UniProt P04629); settings: read-out: % Ctrl, TRKA
Sequence of 97 kinases (kinase named in endpoint) (Homo sapiens, UniProt P04629) (P04629 33-796): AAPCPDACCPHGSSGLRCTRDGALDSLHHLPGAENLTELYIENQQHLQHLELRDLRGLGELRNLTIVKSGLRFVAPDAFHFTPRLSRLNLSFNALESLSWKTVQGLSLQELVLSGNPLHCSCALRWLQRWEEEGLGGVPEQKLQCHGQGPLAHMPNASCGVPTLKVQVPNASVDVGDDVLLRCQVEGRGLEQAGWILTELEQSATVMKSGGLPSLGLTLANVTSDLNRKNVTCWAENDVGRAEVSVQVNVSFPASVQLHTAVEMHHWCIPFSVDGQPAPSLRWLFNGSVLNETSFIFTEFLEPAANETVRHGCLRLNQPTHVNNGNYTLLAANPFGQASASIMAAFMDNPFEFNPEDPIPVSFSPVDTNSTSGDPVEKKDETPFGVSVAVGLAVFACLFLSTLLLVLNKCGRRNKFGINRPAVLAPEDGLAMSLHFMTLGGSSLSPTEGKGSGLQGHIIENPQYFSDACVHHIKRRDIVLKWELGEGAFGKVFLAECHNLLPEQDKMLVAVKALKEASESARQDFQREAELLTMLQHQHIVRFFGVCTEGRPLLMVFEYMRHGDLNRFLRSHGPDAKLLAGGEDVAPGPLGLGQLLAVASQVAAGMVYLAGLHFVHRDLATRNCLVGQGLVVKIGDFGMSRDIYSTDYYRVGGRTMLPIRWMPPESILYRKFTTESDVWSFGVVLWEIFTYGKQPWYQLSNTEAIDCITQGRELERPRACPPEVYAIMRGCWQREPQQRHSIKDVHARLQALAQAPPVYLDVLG
Protocol: as §1, §2, §3, §4, §5, §6

[10] = molecular target: 97 kinases (kinase named in endpoint) (Homo sapiens, UniProt P36507); settings: read-out: % Ctrl, MEK2
Protocol: as §1, §2, §3, §4, §5, §6

[11] = molecular target: 97 kinases (kinase named in endpoint) (Homo sapiens, UniProt P36896); settings: read-out: % Ctrl, ACVR1B
Protocol: as §1, §2, §3, §4, §5, §6

[12] = molecular target: 97 kinases (kinase named in endpoint) (Homo sapiens, UniProt O14920); settings: read-out: % Ctrl, IKK-beta
Protocol: as §1, §2, §3, §4, §5, §6

[13] = molecular target: 97 kinases (kinase named in endpoint) (Homo sapiens, UniProt P80192); settings: read-out: % Ctrl, MLK1
Sequence of 97 kinases (kinase named in endpoint) (Homo sapiens, UniProt P80192) (P80192 whole entry): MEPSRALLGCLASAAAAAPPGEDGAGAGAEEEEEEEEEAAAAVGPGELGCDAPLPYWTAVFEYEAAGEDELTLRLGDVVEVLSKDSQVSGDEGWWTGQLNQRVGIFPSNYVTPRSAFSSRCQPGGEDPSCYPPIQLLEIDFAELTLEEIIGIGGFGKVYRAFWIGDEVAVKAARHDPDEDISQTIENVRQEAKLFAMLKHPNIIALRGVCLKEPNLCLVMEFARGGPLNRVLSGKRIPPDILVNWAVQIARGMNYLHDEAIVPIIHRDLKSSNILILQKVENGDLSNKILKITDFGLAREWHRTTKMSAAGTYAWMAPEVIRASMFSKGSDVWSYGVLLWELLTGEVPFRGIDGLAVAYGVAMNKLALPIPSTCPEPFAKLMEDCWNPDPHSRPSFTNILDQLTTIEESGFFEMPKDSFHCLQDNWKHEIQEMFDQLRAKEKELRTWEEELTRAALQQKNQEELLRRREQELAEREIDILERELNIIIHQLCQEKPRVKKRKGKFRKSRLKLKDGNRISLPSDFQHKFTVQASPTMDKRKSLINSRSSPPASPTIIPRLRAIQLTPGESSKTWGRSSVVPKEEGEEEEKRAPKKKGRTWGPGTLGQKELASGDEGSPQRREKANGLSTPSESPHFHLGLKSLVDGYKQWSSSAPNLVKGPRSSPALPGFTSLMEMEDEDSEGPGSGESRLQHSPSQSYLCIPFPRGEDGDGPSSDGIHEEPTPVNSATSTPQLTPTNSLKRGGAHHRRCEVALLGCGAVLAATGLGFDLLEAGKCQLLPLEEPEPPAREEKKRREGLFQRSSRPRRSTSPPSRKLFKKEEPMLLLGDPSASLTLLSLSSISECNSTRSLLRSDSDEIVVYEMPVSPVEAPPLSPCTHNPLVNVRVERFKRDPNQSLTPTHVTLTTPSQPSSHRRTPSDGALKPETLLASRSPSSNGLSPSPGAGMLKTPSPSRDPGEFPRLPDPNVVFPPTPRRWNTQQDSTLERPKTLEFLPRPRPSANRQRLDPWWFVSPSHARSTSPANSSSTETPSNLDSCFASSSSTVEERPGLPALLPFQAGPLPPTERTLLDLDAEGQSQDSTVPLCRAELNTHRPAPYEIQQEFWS
Protocol: as §1, §2, §3, §4, §5, §6

[14] = molecular target: 97 kinases (kinase named in endpoint) (Homo sapiens, UniProt O14965); settings: read-out: % Ctrl, AURKA
Protocol: as §1, §2, §3, §4, §5, §6

[15] = molecular target: 97 kinases (kinase named in endpoint) (Homo sapiens, UniProt Q9Y463); settings: read-out: % Ctrl, DYRK1B
Protocol: as §1, §2, §3, §4, §5, §6

[16] = molecular target: 97 kinases (kinase named in endpoint) (Homo sapiens, UniProt P31749); settings: read-out: % Ctrl, AKT1
Protocol: as §1, §2, §3, §4, §5, §6

[17] = molecular target: 97 kinases (kinase named in endpoint) (Homo sapiens, UniProt P00519)
Sequence of 97 kinases (kinase named in endpoint) (Homo sapiens, UniProt P00519) (P00519 whole entry): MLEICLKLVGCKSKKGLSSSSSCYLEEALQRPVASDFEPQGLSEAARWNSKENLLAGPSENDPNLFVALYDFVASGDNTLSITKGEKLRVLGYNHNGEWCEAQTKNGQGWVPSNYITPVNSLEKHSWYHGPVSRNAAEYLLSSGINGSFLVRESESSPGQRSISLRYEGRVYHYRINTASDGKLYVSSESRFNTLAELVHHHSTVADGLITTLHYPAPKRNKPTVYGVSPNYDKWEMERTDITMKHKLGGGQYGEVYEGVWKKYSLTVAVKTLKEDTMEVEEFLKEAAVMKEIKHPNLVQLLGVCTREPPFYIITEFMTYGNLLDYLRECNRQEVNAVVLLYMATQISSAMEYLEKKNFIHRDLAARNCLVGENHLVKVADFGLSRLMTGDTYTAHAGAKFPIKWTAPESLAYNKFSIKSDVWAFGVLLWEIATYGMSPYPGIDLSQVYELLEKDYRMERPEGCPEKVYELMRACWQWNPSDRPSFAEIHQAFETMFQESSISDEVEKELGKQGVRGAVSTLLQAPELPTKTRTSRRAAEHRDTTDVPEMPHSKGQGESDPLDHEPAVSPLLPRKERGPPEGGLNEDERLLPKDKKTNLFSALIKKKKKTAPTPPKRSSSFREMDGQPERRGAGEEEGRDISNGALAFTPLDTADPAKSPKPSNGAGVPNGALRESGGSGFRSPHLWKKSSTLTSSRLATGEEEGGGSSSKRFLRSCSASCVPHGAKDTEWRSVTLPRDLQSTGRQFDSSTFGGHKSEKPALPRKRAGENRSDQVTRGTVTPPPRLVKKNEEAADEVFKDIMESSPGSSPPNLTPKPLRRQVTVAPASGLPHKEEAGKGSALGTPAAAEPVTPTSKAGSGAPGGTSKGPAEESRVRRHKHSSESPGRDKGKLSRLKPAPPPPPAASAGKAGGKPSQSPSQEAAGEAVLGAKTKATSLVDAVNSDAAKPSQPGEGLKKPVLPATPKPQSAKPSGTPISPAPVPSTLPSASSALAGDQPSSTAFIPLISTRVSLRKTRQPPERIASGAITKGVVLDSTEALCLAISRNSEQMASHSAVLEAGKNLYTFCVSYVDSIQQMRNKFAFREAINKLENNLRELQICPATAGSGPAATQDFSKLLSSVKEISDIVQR
Protocol: as §1, §2, §3, §4, §5, §6

[18] = molecular target: 97 kinases (kinase named in endpoint) (Homo sapiens, UniProt P78368); settings: read-out: % Ctrl, CSNK1G2
Protocol: as §1, §2, §3, §4, §5, §6

[19] = molecular target: 97 kinases (kinase named in endpoint) (Homo sapiens, UniProt O00444); settings: read-out: % Ctrl, PLK4
Protocol: as §1, §2, §3, §4, §5, §6

[20] = molecular target: 97 kinases (kinase named in endpoint) (Homo sapiens, UniProt Q8NI60); settings: read-out: % Ctrl, ADCK3
Protocol: as §1, §2, §3, §4, §5, §6

[21] = molecular target: 97 kinases (kinase named in endpoint) (Homo sapiens, UniProt P31751); settings: read-out: % Ctrl, AKT2
Protocol: as §1, §2, §3, §4, §5, §6

[22] = molecular target: 97 kinases (kinase named in endpoint) (Homo sapiens, UniProt Q13177); settings: read-out: % Ctrl, PAK2
Protocol: as §1, §2, §3, §4, §5, §6

[23] = molecular target: 97 kinases (kinase named in endpoint) (Homo sapiens, UniProt Q9BWU1); settings: read-out: % Ctrl, CDK11
Protocol: as §1, §2, §3, §4, §5, §6

[24] = molecular target: 97 kinases (kinase named in endpoint) (Homo sapiens, UniProt P10721, T670I/V559D); settings: read-out: % Ctrl, KIT(V559D,T670I)
Protocol: as §1, §2, §3, §4, §5, §6

[25] = molecular target: 97 kinases (kinase named in endpoint) (Homo sapiens, UniProt P36897); settings: read-out: % Ctrl, TGFBR1
Protocol: as §1, §2, §3, §4, §5, §6

[26] = molecular target: 97 kinases (kinase named in endpoint) (Homo sapiens, UniProt Q86UX6); settings: read-out: % Ctrl, YANK3
Sequence of 97 kinases (kinase named in endpoint) (Homo sapiens, UniProt Q86UX6) (Q86UX6 whole entry): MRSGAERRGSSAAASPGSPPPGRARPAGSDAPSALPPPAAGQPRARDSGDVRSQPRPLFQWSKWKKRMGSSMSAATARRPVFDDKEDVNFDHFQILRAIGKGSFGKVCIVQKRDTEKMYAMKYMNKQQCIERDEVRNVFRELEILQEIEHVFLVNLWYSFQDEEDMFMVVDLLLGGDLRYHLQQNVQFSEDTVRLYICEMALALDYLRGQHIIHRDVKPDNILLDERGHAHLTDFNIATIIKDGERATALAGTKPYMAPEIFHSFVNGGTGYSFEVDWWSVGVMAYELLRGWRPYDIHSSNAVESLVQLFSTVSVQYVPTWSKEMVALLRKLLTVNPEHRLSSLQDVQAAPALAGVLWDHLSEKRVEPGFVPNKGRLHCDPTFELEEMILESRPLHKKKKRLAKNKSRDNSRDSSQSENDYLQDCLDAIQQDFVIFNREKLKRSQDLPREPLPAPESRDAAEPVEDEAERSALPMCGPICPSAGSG
Protocol: as §1, §2, §3, §4, §5, §6

[27] = molecular target: 97 kinases (kinase named in endpoint) (Homo sapiens, UniProt P49841); settings: read-out: % Ctrl, GSK3B
Protocol: as §1, §2, §3, §4, §5, §6

[28] = molecular target: 97 kinases (kinase named in endpoint) (Homo sapiens, UniProt Q00526); settings: read-out: % Ctrl, CDK3
Sequence of 97 kinases (kinase named in endpoint) (Homo sapiens, UniProt Q00526) (Q00526 whole entry): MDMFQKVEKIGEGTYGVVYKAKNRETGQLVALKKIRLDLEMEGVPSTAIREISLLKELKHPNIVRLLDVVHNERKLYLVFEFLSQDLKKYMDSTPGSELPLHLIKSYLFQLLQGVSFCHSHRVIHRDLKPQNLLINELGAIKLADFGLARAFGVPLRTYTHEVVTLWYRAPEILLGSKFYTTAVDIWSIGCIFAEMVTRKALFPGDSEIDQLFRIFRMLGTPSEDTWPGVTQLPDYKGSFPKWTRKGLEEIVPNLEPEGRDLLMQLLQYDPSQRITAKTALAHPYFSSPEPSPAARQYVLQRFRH
Protocol: as §1, §2, §3, §4, §5, §6

[29] = read-out: % Ctrl, ABL1-nonphosphorylated
[30] = read-out: % Ctrl, ABL1-phosphorylated

SMILES	remaining binding at 1 µM [1] [%]	remaining binding at 1 µM [2] [%]	remaining binding at 1 µM [3] [%]	remaining binding at 1 µM [4] [%]	remaining binding at 1 µM [5] [%]	remaining binding at 1 µM [6] [%]	remaining binding at 1 µM [7] [%]	remaining binding at 1 µM [8] [%]	remaining binding at 1 µM [9] [%]	remaining binding at 1 µM [10] [%]	remaining binding at 1 µM [11] [%]	remaining binding at 1 µM [12] [%]	remaining binding at 1 µM [13] [%]	remaining binding at 1 µM [14] [%]	remaining binding at 1 µM [15] [%]	remaining binding at 1 µM [16] [%]	remaining binding at 1 µM [17, 29] [%]	remaining binding at 1 µM [17, 30] [%]	remaining binding at 1 µM [18] [%]	remaining binding at 1 µM [19] [%]	also measured
CCCCCCCCCCCCCC(=O)N[C@@H](CC(N)=O)C(=O)N[C@@H](CC(C)C)C(=O)N[C@]1(C)CCCCCCC=CCCC[C@@](C)(C(=O)N[C@@H](CCC(=O)O)C(=O)N[C@@H](CC(C)C)C(=O)N[C@@H](CC(N)=O)C(N)=O)NC(=O)[C@H](CC(C)C)NC(=O)[C@H](CC(C)C)NC(=O)[C@H](CCCNC(=N)N)NC(=O)[C@H](CC(=O)O)NC(=O)[C@H](CC(C)C)NC(=O)[C@H](CCC(=O)O)NC1=O [compound 2012]	99	85	100	100	98	100	88	100	100	79	81	100	100	100	91	100	56	80	99	97	remaining binding at 1 µM [20]: 100%; remaining binding at 1 µM [21]: 93%; remaining binding at 1 µM [22]: 100%; remaining binding at 1 µM [23]: 87%; remaining binding at 1 µM [24]: 93%; remaining binding at 1 µM [25]: 93%; remaining binding at 1 µM [26]: 91%; remaining binding at 1 µM [27]: 100%; remaining binding at 1 µM [28]: 89%
CNC(=O)c1ccc(Nc2ncc(C(F)(F)F)c(NCc3nccnc3N(C)S(C)(=O)=O)n2)cc1 [defactinib]	50	90	13	100	86	13	63	100	1	64	83	100	6.7	3.9	14	100	37	51	39	39	remaining binding at 1 µM [20]: 93%; remaining binding at 1 µM [21]: 95%; remaining binding at 1 µM [22]: 45%; remaining binding at 1 µM [23]: 97%; remaining binding at 1 µM [24]: 37%; remaining binding at 1 µM [25]: 91%; remaining binding at 1 µM [26]: 89%; remaining binding at 1 µM [27]: 75%; remaining binding at 1 µM [28]: 62%
